Five molecules from patent US5736352A, “Method and apparatus for determination of the activity of cholesterol oxidase and method and apparatus for evaluation of the toxicity of chemical substances” (priority 1995, dated 1998) can be followed below.

Like-named read-outs stand apart in the source and are kept apart here.

In this experiment the test system is cholesterol oxidase. It is filed as biochemical. As to conditions: for effect of the chemical substance on the activity of the cholesterol oxidase (toxicity), curve compared with curve 22: 1 mU/ml cholesterol oxidase, pH 7.45.
The mark [1] stands for this setting: 10 micro-M substance, film 70 mol % L-α-dimyristylphosphatizircoline / 30 mol % cholesterol.

Experimental: Any chemical substrance to be evaluated on the toxicity is previously dissolved or dispersed in the cholesterol oxidase solution 12. A monomolecule film is formed on a surface of the cholesterol oxidase solution 12 by use of a monomolecule film development solution including any phospholipid and any sterol. The surface pressure of the monomolecule film is measured to find a rate in the increase of the surface pressure of the monomolecule film. […] The reduction in the activity of the cholesterol oxidase results in a reduction in the increasing rate of the surface pressure of the monomolecule film. […] This means that the toxicitic chemical substance would be present in the cholesterol oxidase solution.
As a cholesterol oxidase solution 12, there was used a buffer solution including N-2-hydroxyethylpiperzane-N'-2-ethane sulfuric acid, where the ion strength is 0.1 and pH value is 7.45 as well as 1 mU/ml of the cholesterol oxidase is dissolved in the buffer solution. […] As a monomolecule film development solution 13, there was used a monomolecule film development solution comprising 70 mol % of L-α-dimyristylphosphatizircoline and 30 mol % of cholesterol.
The increasing rate of the surface pressure of the monomolecule film depends upon file cholesterol oxidase activity. As described above, the activity of the cholesterol oxidase depends upon the rate of increase in the surface pressure of the monomolecule film.

As to `CCCCCCCCCCCCOS(=O)(=O)[O-].[Na+]` [sodium dodecylsulfate], the “effect of the chemical substance on the activity of the cholesterol oxidase (toxicity), curve compared with curve 22” value (“effect … compared with curve 22” below) (1 micro-M substance, film 70 mol % L-α-di-palmytylphosphatizir-ethanol / 30 mol % pregnenolone) is reported as “reduces the activity of the cholesterol oxidase”.
With `CC(=O)[O-].CC(=O)[O-].[Pb+2]` [lead acetate], the “effect … compared with curve 22” value under setting [1] is reported as “reduces the activity of the cholesterol oxidase”. For the same molecule, under “Cholesterol Oxidase 1 mU/ml, Lead Acetate 10 μ Mol, film 70 mol % L-α-dimyristylphosphatizircoline / 30 mol % cholesterol, five minutes after film was prepared, curve 23 (curve 22 without substance: 5.5 × 10^-2)”, the “Linear Differential Coefficient (rate of increase in the surface pressure of the monomolecule film)” value is 4.2 × 10^-2 mN/mmin.
As to `[Cl-].[Cl-].[Zn+2]` [zinc chloride], the “effect … compared with curve 22” value under setting [1] is on record as “reduces the activity of the cholesterol oxidase”.
With `[Ca+2].[Cl-].[Cl-]` [calcium chloride], the “effect … compared with curve 22” value under setting [1] is given as “no toxicity”.
`[Cl][Hg][Cl]` [mercury chloride]: for the setting “10 micro-M substance, film 70 mol % L-α-dipalmytylphosphatizircoline / 30 mol % dihydrocholesterol”, the “effect … compared with curve 22” value is on record as “reduces the activity of the cholesterol oxidase”.
